One test concerns the target T1, Cannabinoid, CB2 (Homo sapiens, UniProt P34972).
T1 construct: expressed in transfected cells
As to the kind of experiment: Cannabinoid, CB2 (Human recombinant); [3H]-CP55940. Type of test: binding. The settings on record: read-out: Pass 1 (10^−5 M) % Inhibition.

The subject of test [1] is Atrial Natriuretic Peptide, ANP A. As to the kind of experiment: Atrial Natriuretic Peptide, ANP A; [125I]ANP (Rat). Type of test: binding.

The inhibition is the relative decrease from the control value, in per cent.

T1 sequence (P34972 whole entry): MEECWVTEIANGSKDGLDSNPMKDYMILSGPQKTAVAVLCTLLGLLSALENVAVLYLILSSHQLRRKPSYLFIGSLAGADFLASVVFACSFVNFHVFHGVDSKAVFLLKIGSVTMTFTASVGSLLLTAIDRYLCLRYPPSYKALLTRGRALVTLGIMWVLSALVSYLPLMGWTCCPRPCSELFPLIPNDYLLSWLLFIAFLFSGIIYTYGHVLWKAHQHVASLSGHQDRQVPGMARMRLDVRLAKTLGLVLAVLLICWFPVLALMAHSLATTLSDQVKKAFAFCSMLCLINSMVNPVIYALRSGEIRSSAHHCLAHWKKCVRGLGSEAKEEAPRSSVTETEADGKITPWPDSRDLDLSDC

In the case of `COC(=O)[C@H]1[C@@H](OC(=O)c2ccccc2)C[C@@H]2CC[C@H]1N2C` [cocaine], at Cannabinoid, CB2, the inhibition at 10 µM was 0.78%. In test [1], the “Pass 1 (10^−5 M) % Inhibition” value is recorded as 11.36%.

The record behind these values is patent US20020187514A1 (priority 1999, published 2002).
